Our source for the DC50 values is patent publication US20240383908A1, “SYNTHESIS AND APPLICATION OF PHOSPHATASE DEGRADER” (HINOVA PHARMACEUTICALS INC., priority 2021, published 2024).

The assay has as its target T1, SHP2 protein (Homo sapiens, UniProt Q06124).
T1 sequence (Q06124 1-593): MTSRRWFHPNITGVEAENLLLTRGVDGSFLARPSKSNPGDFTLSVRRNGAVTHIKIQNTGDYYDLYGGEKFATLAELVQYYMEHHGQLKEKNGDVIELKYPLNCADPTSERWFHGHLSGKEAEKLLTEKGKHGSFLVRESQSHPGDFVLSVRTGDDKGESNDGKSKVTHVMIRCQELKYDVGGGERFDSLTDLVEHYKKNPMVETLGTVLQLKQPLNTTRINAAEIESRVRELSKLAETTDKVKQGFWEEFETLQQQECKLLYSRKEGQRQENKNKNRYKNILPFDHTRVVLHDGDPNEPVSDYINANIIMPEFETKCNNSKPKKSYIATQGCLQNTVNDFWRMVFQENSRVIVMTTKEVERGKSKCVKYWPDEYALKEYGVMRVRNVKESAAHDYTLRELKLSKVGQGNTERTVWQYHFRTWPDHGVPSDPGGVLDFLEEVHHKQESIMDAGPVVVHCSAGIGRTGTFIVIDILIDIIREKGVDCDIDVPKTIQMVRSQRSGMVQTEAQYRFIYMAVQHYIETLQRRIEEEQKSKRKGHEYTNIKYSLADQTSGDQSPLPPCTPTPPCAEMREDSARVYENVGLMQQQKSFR
In words: Degradation activity on SHP2 protein in MV-411 cells (Western blot, DC50). The format is cell-based. Details: endogenous in cells. The following applies: MV411 cells, 24 hours, read-out: Degradation activity for differenct cell lines MV411 (DC50). How it is done:
• MV-411 cell line (COBIER, CBP-60522) • FBS (GEMINI, Cat. No. 900-108) • 0.01M PBS (Biosharp, Cat. No. 162262) • IMDM (Hyclone, Cat. No. SH30228.01) • Penicillin-Streptomycin (Gibco, Cat. No. 15140122) • DMSO (Sigma, Cat. No. D5879) • Centrifuge Tube, 15 ml (Excell Bio, Cat. No. CS015-0001) • Cell Culture Dish, (WHB, Cat. No. CS016-0128) • 12-well cell culture cluster (Corning, Cat. No. 3513) • RIPA lysate buffer (Thermo, Cat. No. 89900) • Protein Loding Buffer (Beyotime, Cat. No. P0015L) • BCA Protein Assay Kit (EpiZyme, Cat. No. ZJ102) • SDS-PAGE Fast Preparation Kit (EpiZyme, Cat. No. PG112) • Anti-GAPDH (14C10) Rabbit mAb (CST, Cat. No. 2118L) • Anti-SHP2 rabbit mAb (CST, Cat. No. 37525) • Peroxidase Affinipure (HRP) Goat Anti-Rabbit IgG (Zen Bioscience, Cat. No. 511203) • TBST (Biosharp, Cat. No. BL601A) • ECL chemiluminescence kit (4A Biotech, Cat. No. 4AW011-200)
• (1) Cell culture medium: IMIDM medium+10% FBS+1% Pen Strep; • (2) PBS buffer: PBS powder was dissolved in 2 L of ultrapure water and sterilized; • (3) Cell lysate: RIPA lysate buffer is added with protease inhibitors at a ratio of 1:1000 before use.
(1) MV-411 cells were cultured in the cell culture medium, and then well-growing cells were selected and inoculated in a 12-well plate, with 1 mL/well and 1×10^6 cells/well. The plate was incubated overnight in a 5% CO2 cell incubator at 37° C.
(2) 10 mM storage solution of each drug was prepared using dimethylsulfoxide (DMSO). The stock solution was diluted gradually with DMSO before use, and then 1 μL of the compound solution was added to the cell culture well (to ensure that the DMSO concentration in the culture system was […]), so that the final drug concentration is 100 nM, 10 nM, 3 nM, 1 nM, 0.3 nM, and 0.1 nM. Two wells were set for each concentration. The plate was gently shaken and mixed. Additionally, negative control wells (containing an equal amount of DMSO) and positive control wells were included.
(3) After 24 hours of cultivation, the cells were lysed using RIPA cell lysate, and the proteins were extracted. The protein concentration was measured using a BCA assay kit. 5× concentrated protein buffer was loaded, heated at 100° C. for 5 min, and then the sample was stored at −20° C.
(4) For each well, 30 μg of protein was loaded to polyacrylamide gel for electrophoresis.
(5) The protein was transferred from polyacrylamide gel to PVDF membrane, and sealed at room temperature with 5% skimmed milk for 1 h, which was then incubated with the primary antibodies (Anti-SHP2 rabbit mAb and Anti-GAPDH rabbit mAb) at 4° C. overnight. The membrane was washed three times with TBST solution, 10 minutes for each time. After that, the membrane was incubated with the secondary antibodies (horseradish peroxidase labeled goat anti-rabbit IgG) at room temperature for 2 h, and then washed three times with TBST solution, 10 minutes for each time, followed by exposure.
(6) The images were analyzed with Image J grayscale, and the degradation ratio of protein bands in the test group was calculated, based on the negative control group (DMSO) (100%).
(7) Using the Dose-response-inhibition equation in the data processing software GraphPad Prism 8, the DC50 value was obtained (which represents the drug concentration corresponding to 50% degradation of the target protein).
Finally, ECL detection solution was added for color development, and photos were taken with an automatic chemiluminescence instrument, so as to collect images and analyze them.
One may read the DC50 as the concentration at which degradation of the target reaches its halfway point. `CC1(N)CCN(c2cnc(Sc3cccc(NC(=O)CCCCC(=O)Nc4cccc5c4CN(C4CCC(=O)NC4=O)C5=O)c3)cn2)CC1` (centres unmarked) [Compound 1]: the DC50 was above 1000 nM.

As for `CC1(N)CCN(c2cnc(Sc3cccc(NC(=O)CCCCCCCC(=O)NCc4ccc5c(c4)CN(C4CCC(=O)NC4=O)C5=O)c3)cn2)CC1` (centres unmarked) [Compound 2], the DC50 is 100 to 1000 nM.

As to `CC1(N)CCN(c2cnc(Sc3cccc(NC(=O)COCCOCCOCCOCC(=O)NCc4ccc5c(c4)CN(C4CCC(=O)NC4=O)C5=O)c3)cn2)CC1` (centres unmarked) [Compound 3], the DC50 lay within 100 to 1000 nM.

For the molecule `CC1(N)CCN(c2cnc(Sc3cccc(NC(=O)COCCOCCOCCOCC(=O)Nc4ccc5c(c4)C(=O)N(C4CCC(=O)NC4=O)C5)c3)cn2)CC1` (centres unmarked) [Compound 4], the DC50 was 100 to 1000 nM.

On to `CC1(N)CCN(c2cnc(Sc3cccc(NC(=O)CC(=O)Nc4cccc5c4CN(C4CCC(=O)NC4=O)C5=O)c3)cn2)CC1` (centres unmarked) [Compound 5], for which the half-maximal degradation concentration (DC50) was above 1000 nM.

As for `Cc1ncsc1-c1ccc([C@H](C)NC(=O)[C@@H]2C[C@@H](O)CN2C(=O)[C@@H](NC(=O)COCCOCCOCCOCC(=O)Nc2ccc(Sc3cnc(N4CCC(C)(CN)CC4)cn3)c(Cl)c2)C(C)(C)C)cc1` [Compound 7], the DC50 is 100 to 1000 nM.

Take `CC1(CN)CCN(c2cnc(Sc3ccc(NC(=O)COCCOCC(=O)Nc4ccc5c(c4)C(=O)N(C4CCC(=O)NC4=O)C5)cc3Cl)cn2)CC1` (centres unmarked) [Compound 8]: the DC50 was above 1000 nM.

For `CC1(N)CCN(c2cnc(Sc3cccc(NC(=O)CC(=O)Nc4ccc5c(c4)C(=O)N(C4CCC(=O)NC4=O)C5)c3)cn2)CC1` (centres unmarked) [Compound 9], the DC50 is above 1000 nM.

`CC1(CN)CCN(c2cnc(Sc3ccc(NC(=O)COCCOCCOCCOCC(=O)Nc4ccc5c(c4)C(=O)N(C4CCC(=O)NC4=O)C5)cc3Cl)cn2)CC1` (centres unmarked) [Compound 11]: the DC50 was above 1000 nM.

With `Cc1ncsc1-c1ccc([C@H](C)NC(=O)[C@@H]2C[C@@H](O)CN2C(=O)[C@@H](NC(=O)COCCOCCOCCOCC(=O)Nc2cccc(Sc3cnc(N4CCC(C)(N)CC4)cn3)c2)C(C)(C)C)cc1` [Compound 12], the DC50 is below 100 nM.

With `CC1(CN)CCN(c2cnc(Sc3cccc(NC(=O)CCC(=O)N4CCN(CCCCCCCCC(=O)Nc5cccc6c5CN(C5CCC(=O)NC5=O)C6=O)CC4)c3Cl)cn2)CC1` (centres unmarked) [Compound 13], the DC50 is below 100 nM.

Turning to `CC1(CN)CCN(c2cnc(Sc3cccc(NC(=O)CCC(=O)N4CCN(CCCCCCCCC(=O)Nc5ccc6c(c5)CN(C5CCC(=O)NC5=O)C6=O)CC4)c3Cl)cn2)CC1` (centres unmarked) [Compound 14], the DC50 is below 100 nM.

As to `CC1(CN)CCN(c2cnc(Sc3cccc(NC(=O)CCC(=O)N4CCN(CCCCCCCCC(=O)NCc5ccc6c(c5)CN(C5CCC(=O)NC5=O)C6=O)CC4)c3Cl)cn2)CC1` (centres unmarked) [Compound 15, 9-(4-(4-((3-((5-(4-(aminomethyl)-4-methylpyridin-1-yl)pyrazin-2-yl)thio)-2-chlorophenyl)amino)-4-oxobutyryl)piperazin-1-yl)-N-((2-(2,6-dioxopiperidin-3-yl)-1-oxoisoindol-5-yl)methyl)nonanamide], the DC50 was below 100 nM.

In the case of `CC1(CN)CCN(c2cnc(Sc3cccc(NC(=O)CCC(=O)N4CCN(CCCCCCCCC(=O)Nc5ccc6c(c5)C(=O)N(C5CCC(=O)NC5=O)C6)CC4)c3Cl)cn2)CC1` (centres unmarked) [Compound 16], the DC50 was below 100 nM.

Regarding `CC1(N)CCN(c2cnc(Sc3cccc(NC(=O)COCCOCCOCCOCC(=O)Nc4cccc5c4CN(C4CCC(=O)NC4=O)C5=O)c3)cn2)CC1` (centres unmarked) [Compound 17], the DC50 is above 1000 nM.

Regarding `CC1(N)CCN(c2cnc(Sc3cccc(NC(=O)COCCOCCOCCOCC(=O)Nc4ccc5c(c4)CN(C4CCC(=O)NC4=O)C5=O)c3)cn2)CC1` (centres unmarked) [Compound 18], the DC50 is above 1000 nM.

As to `CC1(N)CCN(c2cnc(Sc3cccc(NC(=O)CCC(=O)NCCOCCOCC(=O)NCc4ccc5c(c4)CN(C4CCC(=O)NC4=O)C5=O)c3)cn2)CC1` (centres unmarked) [Compound 19], the DC50 is above 1000 nM.

With `Cc1nc2cccc(NC(=O)COCCOCCNC(=O)CCC(=O)Nc3cccc(Sc4cnc(N5CCC(C)(N)CC5)cn4)c3)c2c(=O)n1C1CCC(=O)NC1=O` (centres unmarked) [Compound 20], the DC50 was above 1000 nM.

As to `CC1(N)CCN(c2cnc(Sc3cccc(NC(=O)CCC(=O)NCCOCCOCCOCC(=O)NCc4ccc5c(c4)CN(C4CCC(=O)NC4=O)C5=O)c3)cn2)CC1` (centres unmarked) [Compound 21], the DC50 is above 1000 nM.

With `CC1(N)CCN(c2cnc(Sc3cccc(NC(=O)CCC(=O)NCCOCCOCCOCC(=O)Nc4ccc5c(c4)C(=O)N(C4CCC(=O)NC4=O)C5)c3)cn2)CC1` (centres unmarked) [Compound 22], the half-maximal degradation concentration (DC50) was above 1000 nM.

With `CC1(N)CCN(c2cnc(Sc3cccc(NC(=O)[C@H]4CCC[C@@H]4C(=O)N4CCN(CCCCCCCCC(=O)Nc5ccc6c(c5)C(=O)N(C5CCC(=O)NC5=O)C6)CC4)c3)cn2)CC1` (some centres unmarked) [Compound 24], the DC50 was above 1000 nM.

For `CC1(N)CCN(c2cnc(Sc3cccc(NC(=O)[C@H]4CCC[C@@H]4C(=O)N4CCN(CCCCCCCCC(=O)NCc5ccc6c(c5)CN(C5CCC(=O)NC5=O)C6=O)CC4)c3)cn2)CC1` (some centres unmarked) [Compound 25], the DC50 was above 1000 nM.

Turning to `CC1(N)CCN(c2cnc(Sc3cccc(NC(=O)CCC(=O)N4CC5(CN(CCCCCCCC(=O)Nc6ccc7c(c6)C(=O)N(C6CCC(=O)NC6=O)C7)C5)C4)c3)cn2)CC1` (centres unmarked) [Compound 26], the DC50 was above 1000 nM.

For the molecule `CC1(N)CCN(c2cnc(Sc3cccc(NC(=O)CCC(=O)N4CCN(CCCCCCCCC(=O)NCc5ccc6c(c5)CN(C5CCC(=O)NC5=O)C6=O)CC4)c3)cn2)CC1` (centres unmarked) [Compound 27], the DC50 was below 100 nM.

`Cc1ncsc1-c1ccc([C@H](C)NC(=O)[C@@H]2C[C@@H](O)CN2C(=O)[C@@H](NC(=O)CCCCCCCCN2CCN(C(=O)[C@H]3CCC[C@@H]3C(=O)Nc3cccc(Sc4cnc(N5CCC(C)(N)CC5)cn4)c3)CC2)C(C)(C)C)cc1` [Compound 28]: the DC50 is below 100 nM.

Take `CC1(N)CCN(c2cnc(Sc3cccc(NC(=O)CCC(=O)NCCOCCOCC(=O)Nc4cccc5c4CN(C4CCC(=O)NC4=O)C5=O)c3)cn2)CC1` (centres unmarked) [Compound 29]: the DC50 is above 1000 nM.

Take `CC1(N)CCN(c2cnc(Sc3cccc(NC(=O)CCC(=O)NCCOCCOCC(=O)Nc4ccc5c(c4)CN(C4CCC(=O)NC4=O)C5=O)c3)cn2)CC1` (centres unmarked) [Compound 30]: the DC50 was above 1000 nM.

`CC1(N)CCN(c2cnc(Sc3cccc(NC(=O)CCC(=O)N4CC5(CN(CCCCCCCC(=O)NCc6ccc7c(c6)CN(C6CCC(=O)NC6=O)C7=O)C5)C4)c3)cn2)CC1` (centres unmarked) [Compound 31]: the DC50 is above 1000 nM.

Consider `Cc1ncsc1-c1ccc([C@H](C)NC(=O)[C@@H]2C[C@@H](O)CN2C(=O)[C@@H](NC(=O)CCCCCCCCN2CCN(C(=O)CCC(=O)Nc3cccc(Sc4cnc(N5CCC(C)(N)CC5)cn4)c3)CC2)C(C)(C)C)cc1` [Compound 34], for which the DC50 was below 100 nM.
